Experimental data: patent US10785979B2, “Substituted ketoxime benzoylamides” (Bayer CropScience Aktiengesellschaft, priority 2015, dated 2020)

Assays:
[1] = system: different harmful plants; assay: Pre-emergence comparative tests versus known compounds from WO 2013/064459 A1 (D1); format: in vivo; settings: visual scoring after 3 weeks; for Herbicidal efficacy against AVEFA: Avena fatua; for Herbicidal efficacy against CYPES: Cyperus esculentus; for Herbicidal efficacy against VIOTR: Viola tricolor; for Herbicidal efficacy against STEME: Stellaria media; for Herbicidal efficacy against ECHCG: Echinochloa crus galli; for Herbicidal efficacy against POLCO: Polygonum convolvulus
Description: Seeds of monocotyledonous and dicotyledonous weed plants and crop plants are laid out in wood-fiber pots in sandy loam and covered with soil. The compounds of the invention, formulated in the form of wettable powders (WP) or as emulsion concentrates (EC), are then applied to the surface of the covering soil in the form of an aqueous suspension or emulsion at a water application rate equating to 600 to 800 I/ha, with addition of 0.2% wetting agent. After the treatment, the pots are placed in a greenhouse and kept under good growth conditions for the trial plants. The damage to the test plants is scored visually after a test period of 3 weeks by comparison with untreated controls (herbicidal activity in percent (%): 100% activity=the plants have died, 0% activity=like control plants). In this case, for example, compound Nos. 1-15, 1-71, 1-74, 2-15, 2-19, 2-67, 2-71, 2-74, 2-136, 3-15, 3-19, 4-74, 5-15, 5-67, 5-71, 5-74, 6-15, 6-19, 6-67, 6-71, 6-74, 7-15, 7-19, 7-71, 7-74, 8-1, 8-25, 9-5, 9-25, 10-5 and 12-25, at an application rate of 320 g/ha, each show at least 80% efficacy against Abutilon theophrasti and Veronica persica.
(§1) 3. Comparative Experiments
(§2) In addition, comparative tests were conducted under the conditions specified above on different harmful plants between inventive compounds and the most structurally similar known compounds from WO 2013/064459 A1 (D1). The results listed in the tables which follow show the superiority of these compounds of the invention.
(§3) The abbreviations used here mean:
Pre-Emergence Comparative Tests

[2] = system: different harmful plants; assay: Post-emergence comparative tests versus known compounds from WO 2013/064459 A1 (D1); format: in vivo; settings: visual assessment after about 3 weeks; for Herbicidal efficacy against MATIN: Matricaria inodora; for Herbicidal efficacy against VIOTR: Viola tricolor; for Herbicidal efficacy against ALOMY: Alopecurus myosuroides
Description: Seeds of monocotyledonous and dicotyledonous weed and crop plants are laid out in sandy loam soil in wood-fiber pots, covered with soil and cultivated in a greenhouse under good growth conditions. 2 to 3 weeks after sowing, the test plants are treated at the one-leaf stage. The compounds of the invention, formulated in the form of wettable powders (WP) or as emulsion concentrates (EC), are then sprayed onto the green parts of the plants in the form of an aqueous suspension or emulsion at a water application rate equating to 600 to 800 I/ha, with addition of 0.2% wetting agent. After the test plants have been left to stand in the greenhouse under optimal growth conditions for about 3 weeks, the action of the preparations is assessed visually in comparison to untreated controls (herbicidal action in percent (%): 100% activity=the plants have died, 0% activity=like control plants). In this case, for example, compound Nos. 1-15, 1-71, 1-74, 2-15, 2-19, 2-67, 2-71, 2-74, 2-136, 3-15, 3-19, 4-19, 4-136, 5-15, 7-15, 7-19, 7-74, 8-1, 8-25, 8-26, 9-5, 9-25, 10-5 and 10-5, at an application rate of 80 g/ha, each show at least 80% efficacy against Abutilon theophrasti and Veronica persica.
as §1, §2, §3
Post-Emergence Comparative Tests

With `CCON=C(C)c1c(Cl)ccc(C(=O)Nc2nnnn2C)c1Cl` (single isomer, unassigned) [1-5] as the compound, how does the “Herbicidal efficacy against AVEFA” value ([1]; 320 g a.i./ha) read?
The value was 90%.

And the “Herbicidal efficacy against CYPES” value ([1]; 320 g a.i./ha)?
Its value is 90%.

And the “Herbicidal efficacy against VIOTR” value ([1]; 320 g a.i./ha)?
The value was 100%.

And the “Herbicidal efficacy against MATIN” value ([2]; 20 g a.i./ha)?
Its value is 90%.

What about the “Herbicidal efficacy against VIOTR” value ([2]; 20 g a.i./ha) of the same compound?
The value was 90%.

With `CC(=NOCC1CC1)c1c(Cl)ccc(C(=O)Nc2nnnn2C)c1Cl` (single isomer, unassigned) [1-8] as the compound, how does the “Herbicidal efficacy against AVEFA” value ([1]; 320 g a.i./ha) read?
The value was 90%.

And the “Herbicidal efficacy against STEME” value ([1]; 320 g a.i./ha)?
The value was 100%.

And the “Herbicidal efficacy against VIOTR” value ([1]; 320 g a.i./ha)?
The value was 100%.

What about the “Herbicidal efficacy against ALOMY” value ([2]; 80 g a.i./ha) of the same compound?
The value was 70%.

And the “Herbicidal efficacy against MATIN” value ([2]; 80 g a.i./ha)?
The value was 100%.

How did the “Herbicidal efficacy against AVEFA” value ([1]; 320 g a.i./ha) turn out when `CCn1nnnc1NC(=O)c1ccc(Cl)c(C(C)=NOC)c1Cl` (single isomer, unassigned) [2-1] was run?
Its value is 100%.

What about the “Herbicidal efficacy against CYPES” value ([1]; 320 g a.i./ha) of the same compound?
Its value is 100%.

What about the “Herbicidal efficacy against VIOTR” value ([1]; 320 g a.i./ha) of the same compound?
Its value is 100%.

And the “Herbicidal efficacy against ALOMY” value ([2]; 80 g a.i./ha)?
The value was 60%.

What about the “Herbicidal efficacy against VIOTR” value ([2]; 80 g a.i./ha) of the same compound?
Its value is 100%.

Which results are given for `CCCn1nnnc1NC(=O)c1ccc(Cl)c(C(C)=NOC)c1Cl` (single isomer, unassigned) [3-1]?
Herbicidal efficacy against AVEFA ([1]; 320 g a.i./ha): 80%; Herbicidal efficacy against CYPES ([1]; 320 g a.i./ha): 100%; Herbicidal efficacy against VIOTR ([1]; 320 g a.i./ha): 100%; Herbicidal efficacy against MATIN ([2]; 20 g a.i./ha): 80%; Herbicidal efficacy against VIOTR ([2]; 20 g a.i./ha): 100%

For `CCCn1nnnc1NC(=O)c1ccc(Cl)c(C(C)=NOCC)c1Cl` (single isomer, unassigned) [3-5], which “Herbicidal efficacy against AVEFA” value ([1]; 320 g a.i./ha) is on record?
The value was 70%.

And the “Herbicidal efficacy against STEME” value ([1]; 320 g a.i./ha)?
The value was 100%.

And the “Herbicidal efficacy against VIOTR” value ([1]; 320 g a.i./ha)?
Its value is 100%.

And the “Herbicidal efficacy against MATIN” value ([2]; 80 g a.i./ha)?
The value was 90%.

What about the “Herbicidal efficacy against VIOTR” value ([2]; 80 g a.i./ha) of the same compound?
Its value is 100%.

`CCCn1nnnc1NC(=O)c1ccc(Cl)c(C(C)=NOCC2CC2)c1Cl` (single isomer, unassigned) [3-8] was tested. Which “Herbicidal efficacy against MATIN” value ([2]; 80 g a.i./ha) did it give?
Its value is 70%.

What about the “Herbicidal efficacy against VIOTR” value ([2]; 80 g a.i./ha) of the same compound?
The value was 80%.

With `CCCn1nnnc1NC(=O)c1ccc(S(C)(=O)=O)c(C(C)=NOC)c1Cl` (single isomer, unassigned) [3-15] as the compound, how does the “Herbicidal efficacy against MATIN” value ([2]; 20 g a.i./ha) read?
Its value is 90%.

What about the “Herbicidal efficacy against VIOTR” value ([2]; 20 g a.i./ha) of the same compound?
Its value is 90%.

`CCCn1nnnc1NC(=O)c1ccc(S(C)(=O)=O)c(C(C)=NOCC)c1Cl` (single isomer, unassigned) [3-19] was tested. Which “Herbicidal efficacy against CYPES” value ([1]; 80 g a.i./ha) did it give?
Its value is 80%.

What about the “Herbicidal efficacy against ECHCG” value ([1]; 80 g a.i./ha) of the same compound?
Its value is 90%.

And the “Herbicidal efficacy against VIOTR” value ([1]; 80 g a.i./ha)?
Its value is 100%.

What about the “Herbicidal efficacy against ALOMY” value ([2]; 80 g a.i./ha) of the same compound?
Its value is 50%.

What about the “Herbicidal efficacy against VIOTR” value ([2]; 80 g a.i./ha) of the same compound?
Its value is 100%.

What does the source list for `CCON=C(C)c1c(Cl)ccc(C(=O)Nc2ncnn2C)c1Cl` (single isomer, unassigned) [4-5]?
Herbicidal efficacy against ECHCG ([1]; 320 g a.i./ha): 90%; Herbicidal efficacy against STEME ([1]; 320 g a.i./ha): 80%; Herbicidal efficacy against VIOTR ([1]; 320 g a.i./ha): 100%; Herbicidal efficacy against ALOMY ([2]; 80 g a.i./ha): 30%; Herbicidal efficacy against VIOTR ([2]; 80 g a.i./ha): 90%

With `CCON=C(C)c1c(S(C)(=O)=O)ccc(C(=O)Nc2ncnn2C)c1Cl` (single isomer, unassigned) [4-19] as the compound, how does the “Herbicidal efficacy against ALOMY” value ([2]; 20 g a.i./ha) read?
The value was 80%.

And the “Herbicidal efficacy against VIOTR” value ([2]; 20 g a.i./ha)?
The value was 100%.

With `CON=C(C)c1c(Cl)ccc(C(=O)Nc2nonc2C)c1Cl` (single isomer, unassigned) [6-1] as the compound, how does the “Herbicidal efficacy against ECHCG” value ([1]; 320 g a.i./ha) read?
Its value is 60%.

And the “Herbicidal efficacy against POLCO” value ([1]; 320 g a.i./ha)?
Its value is 40%.

What about the “Herbicidal efficacy against STEME” value ([1]; 320 g a.i./ha) of the same compound?
The value was 60%.

`CON=C(C)c1c(S(C)(=O)=O)ccc(C(=O)Nc2nonc2C)c1Cl` (single isomer, unassigned) [6-15] was tested. Which “Herbicidal efficacy against MATIN” value ([2]; 80 g a.i./ha) did it give?
Its value is 80%.

What about the “Herbicidal efficacy against VIOTR” value ([2]; 80 g a.i./ha) of the same compound?
The value was 100%.

With `CCON=C(C)c1c(S(C)(=O)=O)ccc(C(=O)Nc2nonc2C)c1Cl` (single isomer, unassigned) [6-19] as the compound, how does the “Herbicidal efficacy against AVEFA” value ([1]; 320 g a.i./ha) read?
The value was 30%.

And the “Herbicidal efficacy against CYPES” value ([1]; 320 g a.i./ha)?
The value was 80%.

What about the “Herbicidal efficacy against VIOTR” value ([1]; 320 g a.i./ha) of the same compound?
The value was 100%.

And the “Herbicidal efficacy against MATIN” value ([2]; 80 g a.i./ha)?
The value was 70%.

What about the “Herbicidal efficacy against VIOTR” value ([2]; 80 g a.i./ha) of the same compound?
Its value is 100%.

Which “Herbicidal efficacy against ALOMY” value ([2]; 80 g a.i./ha) does the source give for `CCCn1nnnc1NC(=O)c1ccc(S(C)(=O)=O)c(C(C)=NOC)c1Cl` (single isomer, unassigned) [10-5] here?
The value was 60%.

And the “Herbicidal efficacy against MATIN” value ([2]; 80 g a.i./ha)?
The value was 100%.

Which “Herbicidal efficacy against AVEFA” value ([1]; 320 g a.i./ha) does the source give for `CCCn1nnnc1NC(=O)c1ccc(S(C)(=O)=O)c(C(C)=NOCC)c1Cl` (single isomer, unassigned) [10-6] here?
The value was 40%.

And the “Herbicidal efficacy against POLCO” value ([1]; 320 g a.i./ha)?
The value was 60%.

And the “Herbicidal efficacy against VIOTR” value ([1]; 320 g a.i./ha)?
Its value is 100%.

And the “Herbicidal efficacy against MATIN” value ([2]; 20 g a.i./ha)?
Its value is 90%.

What about the “Herbicidal efficacy against VIOTR” value ([2]; 20 g a.i./ha) of the same compound?
The value was 100%.

What does the source list for `CON=C(C)c1c(S(C)(=O)=O)ccc(C(=O)Nc2nonc2C)c1Cl` (single isomer, unassigned) [13-5]?
Herbicidal efficacy against MATIN ([2]; 80 g a.i./ha): 60%; Herbicidal efficacy against VIOTR ([2]; 80 g a.i./ha): 90%

Which results are given for `CCON=C(C)c1c(S(C)(=O)=O)ccc(C(=O)Nc2nonc2C)c1Cl` (single isomer, unassigned) [13-6]?
Herbicidal efficacy against AVEFA ([1]; 320 g a.i./ha): 60%; Herbicidal efficacy against CYPES ([1]; 320 g a.i./ha): 60%; Herbicidal efficacy against VIOTR ([1]; 320 g a.i./ha): 100%; Herbicidal efficacy against MATIN ([2]; 80 g a.i./ha): 60%; Herbicidal efficacy against VIOTR ([2]; 80 g a.i./ha): 100%
